Data as given in ChEMBL document CHEMBL3244053, “Structural modification study of bis(substituted aminoalkylamino)anthraquinones. An evaluation of the relationship of the [2-[(2-hydroxyethyl)amino]ethyl]amino side chain with antineoplastic activity” (1979).
The source made the active and inactive calls. The rule behind the calls is not given here.

Tests used:
L1210 [1] = assay: Antineoplastic activity against mouse L1210 cells allografted in CDF1 mouse at 25 mg/kg qd for 9 days relative to control; assay type: functional
B16 [2] = assay: Antineoplastic activity against mouse B16 cells allografted in BDF1 mouse assessed as survival at 50 mg/kg qd for 9 days; assay type: functional, organism-based; design: dose 50 mg/kg
B16 [3] = assay: Antineoplastic activity against mouse B16 cells allografted in BDF1 mouse at 100 mg/kg qd for 9 days relative to control; assay type: functional
P388 [4] = assay: Antineoplastic activity against mouse P388 cells allografted in CDF1 mouse at 100 mg/kg qd for 9 days relative to control; assay type: functional
P388 [5] = assay: Antineoplastic activity against mouse P388 cells allografted in CDF1 mouse assessed as survival at 50 mg/kg qd for 9 days; assay type: functional, organism-based; design: dose 50 mg/kg
P388 [6] = assay: Antineoplastic activity against mouse P388 cells allografted in CDF1 mouse assessed as survival at 100 mg/kg qd for 9 days; assay type: functional, organism-based; design: dose 100 mg/kg
P388 [7] = assay: Antineoplastic activity against mouse P388 cells allografted in CDF1 mouse at 50 mg/kg qd for 9 days relative to control; assay type: functional
B16 [8] = assay: Antineoplastic activity against mouse B16 cells allografted in BDF1 mouse assessed as survival at 100 mg/kg qd for 9 days; assay type: functional, organism-based; design: dose 100 mg/kg
B16 [9] = assay: Antineoplastic activity against mouse B16 cells allografted in BDF1 mouse at 50 mg/kg qd for 9 days relative to control; assay type: functional
L1210 [10] = assay: Antineoplastic activity against mouse L1210 cells allografted in CDF1 mouse assessed as survival at 25 mg/kg qd for 9 days; assay type: functional, organism-based; design: dose 25 mg/kg
P388 [11] = assay: Antineoplastic activity against mouse P388 cells allografted in CDF1 mouse assessed as survival at 25 mg/kg qd for 9 days; assay type: functional, organism-based; design: dose 25 mg/kg
P388 [12] = assay: Antineoplastic activity against mouse P388 cells allografted in CDF1 mouse at 30 mg/kg qd for 9 days relative to control; assay type: functional
P388 [13] = assay: Antineoplastic activity against mouse P388 cells allografted in CDF1 mouse at 25 mg/kg qd for 9 days relative to control; assay type: functional
P388 [14] = assay: Antineoplastic activity against mouse P388 cells allografted in CDF1 mouse at 15 mg/kg qd for 9 days relative to control; assay type: functional
P388 [15] = assay: Antineoplastic activity against mouse P388 cells allografted in CDF1 mouse assessed as survival at 30 mg/kg qd for 9 days; assay type: functional, organism-based; design: dose 30 mg/kg
P388 [16] = assay: Antineoplastic activity against mouse P388 cells allografted in CDF1 mouse assessed as survival at 12.5 mg/kg qd for 9 days; assay type: functional, organism-based; design: dose 12.5 mg/kg
P388 [17] = assay: Antineoplastic activity against mouse P388 cells allografted in CDF1 mouse at 12.5 mg/kg qd for 9 days relative to control; assay type: functional
P388 [18] = assay: Antineoplastic activity against mouse P388 cells allografted in CDF1 mouse assessed as survival at 15 mg/kg qd for 9 days; assay type: functional, organism-based; design: dose 15 mg/kg

In the case of `OCCNCCNc1ccnc2cc(Cl)ccc12`, the T/C (L1210 [1]) is reported as 111%, the Activity (B16 [2]) is reported as “Active” and the T/C (B16 [3]) is reported as 110%. The T/C (P388 [4]) was 118%, the Activity (P388 [5]) was “Active” and the Activity (P388 [6]) was “Active”. For the same compound, the T/C (P388 [7]) was 116%, the Activity (B16 [8]) was “Active” and the T/C (B16 [9]) was 99%. For the same compound, the Activity (L1210 [10]) was “Active”.

`O=C1C=C(NCCNCCO)C(=O)c2ccccc21` showed a T/C (P388 [4]) of 93% and a T/C (P388 [7]) of 103%.

`CN(C)CCC1=CC(=O)c2ccccc2C1=O` was tested, and the T/C (P388 [4]) was 97%, the Activity (P388 [5]) was “Active” and the T/C (P388 [7]) was 100%.

`Cc1ccc(NCCNCCO)c2c(=O)c3ccccc3sc12` was tested, and the Activity (P388 [11]) was “Active”, the T/C (P388 [12]) was 136% and the T/C (P388 [13]) was 120%. The T/C (P388 [14]) was 123%, the Activity (P388 [15]) was “Active” and the Activity (P388 [16]) was “Active”. The T/C (P388 [17]) was 113% and the Activity (P388 [18]) was “Active”.
